From the supplement of paper PMC9334596

Tested on: mPer2Luc MEF
Assay: PER2::LUC luminescence relative to vehicle control (fold of vehicle); higher = higher PER2::LUC reporter signal
Description: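 Secondary dose-response validation of 72 circadian-modulating compounds in mPer2Luc MEFs, threefold dilution series of six doses from 10 uM down to 0.04 uM. PER2::LUC luminescence read at 24 h and 30 h after treatment, normalised to vehicle (DMSO) control.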

[1] = time after treatment: 24-hour, concentration: 0.04μM
[2] = time after treatment: 24-hour, concentration: 0.37μM
[3] = time after treatment: 24-hour, concentration: 3.33μM
[4] = time after treatment: 24-hour, concentration: 10μM
[5] = time after treatment: 30-hour, concentration: 0.04μM
[6] = time after treatment: 30-hour, concentration: 0.37μM
[7] = time after treatment: 30-hour, concentration: 3.33μM
[8] = time after treatment: 30-hour, concentration: 10μM

| SMILES | PER2::LUC luminescence [1] | PER2::LUC luminescence [2] | PER2::LUC luminescence [3] | PER2::LUC luminescence [4] | PER2::LUC luminescence [5] | PER2::LUC luminescence [6] | PER2::LUC luminescence [7] | PER2::LUC luminescence [8] |
| --- | --- | --- | --- | --- | --- | --- | --- | --- |
| COc1cc(NS(C)(=O)=O)ccc1Nc1c2ccccc2nc2ccccc12 [Amsacrine] | 0.726 | 0.768 | 0.663 | 0.603 | 0.43 | 0.474 | 0.379 | 0.285 |
| COc1ccc(C[C@H]2NC[C@H](O)[C@H]2OC(C)=O)cc1 [Anisomycin] | 0.056 | 0.032 | 0.002 | 0.001 | 0.06 | 0.05 | 0.001 | 0.001 |
| COc1ccc(CCN2CCC(Nc3nc4ccccc4n3Cc3ccc(F)cc3)CC2)cc1 [Astemizole] | 0.895 | 0.815 | 0.543 | 0.026 | 0.783 | 0.79 | 0.67 | 0.009 |
| CC[C@@H]1C(=O)N(C)c2cnc(Nc3ccc(C(=O)N[C@H]4CC[C@H](N5CCN(CC6CC6)CC5)CC4)cc3OC)nc2N1C(C)C [BI-6727 (Volasertib)] | 0.71 | 0.565 | 0.287 | 0.074 | 0.679 | 0.574 | 0.326 | 0.08 |
| C/C(=C\C(=O)Nc1ccccc1C(=O)O)c1ccc2ccccc2c1 [BIBR 1532] | 0.94 | 0.97 | 0.991 | 1.16 | 0.94 | 0.891 | 0.98 | 1.26 |
| CN(C)C/C=C/C(=O)Nc1cc2c(Nc3ccc(F)c(Cl)c3)ncnc2cc1O[C@H]1CCOC1 [BIBW2992 DiMaleate] | 0.774 | 0.77 | 0.48 | 0.026 | 0.705 | 0.696 | 0.442 | 0.028 |
| Cc1ccc(-n2nc(C(C)(C)C)cc2NC(=O)Nc2ccc(OCCN3CCOCC3)c3ccccc23)cc1 [BIRB 796 (Doramapimod)] | 0.968 | 0.966 | 0.963 | 1.09 | 0.892 | 0.941 | 0.924 | 1.26 |
| CC(C)c1cnn2c(NCc3ccccc3)cc(NCCCCCCN)nc12 [BS-181] | 1.05 | 0.946 | 0.807 | 0.33 | 0.972 | 0.943 | 0.934 | 0.422 |
| C=CC(=O)Nc1cccc(Nc2nc(Nc3ccc(Oc4ccnc(C(=O)NC)c4)cc3)ncc2F)c1 [CNX-774] | 0.953 | 0.958 | 0.839 | 0.44 | 1.01 | 0.966 | 0.857 | 0.586 |
| O=C(O)CCCCC(CCSCc1ccccc1)SCc1ccccc1 (stereo not given) [CPI-613] | 1 | 0.991 | 1.05 | 1.09 | 1.02 | 0.999 | 1.04 | 1.03 |
| O=C(O)c1ccc2c(c1)nc(Nc1cccc(Cl)c1)c1ccncc12 [CX-4945] | 1.13 | 1.06 | 1.05 | 0.842 | 1.11 | 1.05 | 1.08 | 1.06 |
| Cc1ccc([C@@H]2O[C@H](CO)[C@@H](O)[C@H](O)[C@H]2O)cc1Cc1ccc(-c2ccc(F)cc2)s1 [Canagliflozin] | 1.01 | 0.998 | 0.985 | 1.09 | 0.996 | 0.996 | 0.964 | 0.974 |
| COc1cc2c(Oc3ccc4[nH]c(C)cc4c3F)ncnc2cc1OCCCN1CCCC1 [Cediranib] | 0.767 | 0.585 | 0.35 | 0.033 | 0.662 | 0.496 | 0.306 | 0.019 |
| O=C(c1ccc(F)c(F)c1Nc1ccc(I)cc1F)N1CC(O)([C@@H]2CCCCN2)C1 [Cobimetinib] | 0.419 | 0.495 | 0.11 | 0.015 | 0.459 | 0.437 | 0.168 | 0.007 |
| CC1=C2C[C@H]3[C@@H](CC=C4C[C@@H](O)CC[C@@]43C)[C@@H]2CC[C@]12O[C@@H]1C[C@H](C)CN[C@H]1[C@H]2C [Cyclopamine] | 0.834 | 0.74 | 0.421 | 0.178 | 0.991 | 0.999 | 0.766 | 0.229 |
| CNC(=O)c1cc(Oc2ccc(NC(=O)Nc3cc(C(C)(C)C)nn3-c3ccc4ncccc4c3)c(F)c2)ccn1 [DCC-2036] | 1.27 | 1.3 | 1.28 | 1.1 | 1.72 | 1.81 | 1.74 | 1.27 |
| O=c1c(-c2ccc(O)cc2)coc2cc(O)ccc12 [Daidzein] | 1.01 | 0.97 | 1.1 | 1.3 | 0.995 | 1.04 | 1.11 | 1.59 |
| Cc1nc(Nc2ncc(C(=O)Nc3c(C)cccc3Cl)s2)cc(N2CCN(CCO)CC2)n1 [Dasatinib] | 0.438 | 0.416 | 0.269 | 0.074 | 0.368 | 0.366 | 0.244 | 0.084 |
| CN1CCN(c2ccc3nc(-c4c(N)c5c(F)cccc5[nH]c4=O)[nH]c3c2)CC1 [Dovitinib (TKI-258)] | 0.917 | 0.895 | 0.651 | 0.477 | 0.945 | 0.895 | 0.609 | 0.29 |
| O=C(/C=C/c1cccnc1)NCCCCC1CCN(C(=O)c2ccccc2)CC1 [FK866] | 0.987 | 1.02 | 0.955 | 0.89 | 0.67 | 0.643 | 0.595 | 0.49 |
